# Experiments:
# ERα = biological target: T1, ERα (Homo sapiens, UniProt P03372); experiment: ER Degradation Determination by Western Blot; type: cell-based; details: MCF-7 cells, 10 μM, 18-24 hours
# T1 construct: endogenous in cells; host or cells: MCF-7
# T1 sequence (P03372 1-595): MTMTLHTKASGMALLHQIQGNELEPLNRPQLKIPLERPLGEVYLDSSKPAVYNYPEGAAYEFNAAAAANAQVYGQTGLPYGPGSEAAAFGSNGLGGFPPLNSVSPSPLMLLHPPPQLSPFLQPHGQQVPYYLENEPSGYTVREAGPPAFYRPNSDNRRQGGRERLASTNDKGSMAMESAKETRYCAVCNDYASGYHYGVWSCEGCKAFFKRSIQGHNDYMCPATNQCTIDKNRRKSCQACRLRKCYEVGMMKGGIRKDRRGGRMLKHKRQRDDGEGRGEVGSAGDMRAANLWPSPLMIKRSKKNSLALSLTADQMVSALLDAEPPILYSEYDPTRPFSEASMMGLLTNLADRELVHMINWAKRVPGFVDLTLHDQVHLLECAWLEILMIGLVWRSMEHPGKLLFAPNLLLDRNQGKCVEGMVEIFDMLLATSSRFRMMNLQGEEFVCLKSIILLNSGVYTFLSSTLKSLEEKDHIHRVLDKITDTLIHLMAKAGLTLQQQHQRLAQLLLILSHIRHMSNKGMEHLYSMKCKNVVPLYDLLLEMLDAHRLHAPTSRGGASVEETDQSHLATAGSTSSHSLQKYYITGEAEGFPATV
# Protocol: ER Degradation Determination by Western Blot
# MCF-7 cells are plated at 0.3 million cells/mL (3 mL/well) in 6-well plates in experiment media and incubated at 37° C., 5% CO2 for […]. Next day, 10× solution of compounds are made in DMSO and added the solution to the cells to achieve a final concentration of 10 μM. A DMSO control is included to enable a determination of the relative efficacy of test compounds. Fulvestrant is used as a positive control for ER-alpha degradation, and 4-OH tamoxifen as a control for receptor stabilization. After incubating cells with compounds for 18-24 hours, cell lysates are prepared (2× Cell lysis buffer:100 mM Tris, pH 8, 300 mM NaCl, 2% NP40, 1% Na deoxycholate, 0.04% SDS, 2 mM EDTA) and mixed thoroughly and incubated on ice. The protein concentration is quantified using BCA kit. […] The gel was then transferred onto a nitrocellulose membrane. […] GAPDH protein was used as an internal control.
# MCF7 = experiment: Breast Cancer Cell Proliferation Assay (MCF-7); type: cell-based; details: Homo sapiens, 120 h; MCF7 cells, 5 days of compound exposure, Cell Titer-Glo
# Protocol: Breast Cancer Cell Proliferation Assay (MCF-7)
# MCF7 was expanded and maintained in the medium (Phenol red free DMEM/F12 (Hyclone SH30272.01) NEAA (Gibco11140-050) Na-pyruvate (Gibco 11360-070) and Re-stripped Charcoal stripped FBS (Gemini 100-119)). The cells were adjusted to a concentration of 3,000 cells per mL in the above media, and the cells were incubated (37° C., 5% CO2). The following day a 10 point, serial dilution of compounds was added to the cells at a final concentration ranging from 10-0.000005 μM for test compounds (17β-estradiol was used as a control). Additional cells were plated in 30 wells to serve as the day 1 (pretreatment) comparison. After 5 days of compound exposure, Cell Titer-Glo reagent was added to the cells and the relative luminescence units (RLUs) of each well was determined. Cell Titer-Glo was also added to 32 μL of medium without cells to obtain a background value. The plates were allowed to incubate at room temperature for 10 minutes to stabilize luminescent signal and the luminescence signal was recorded with EnSpire. The relative increase in cell number of each sample is determined as follows: (RLU sample-RLU background/RLU estrogen only treated cells-RLU background)×100=% inhibition.
# [1] = Pharmacokinetic Determination (Rat PK); type: in vivo; details: plasma, female SD rats; for Vd: read-out: Vdss; for bioavailability: PO 10.0 mg/kg vs IV 3.0 mg/kg
# Protocol: Example D Pharmacokinetic Determination
# Grouping female SD rats weighing 200-300 g randomly to two groups; one group was administered with test compound at a dose of 3.0 mg/kg by intravenous injection, the other group was administered with test compound at a dose of 10.0 mg/kg by oral. The formulation for IV groups is DMSO/PEG400/150 mM glycine (pH 9) (5/10/85) and the formulation for PO groups is PEG400/PVP/Tween 80/0.5% CMC in water (9/0.5/0.5/90). After administering, blood samples of intravenous injection group were collected at time points of predose, 0.0833, 0.25, 0.5, 1, 2, 4, 8, 12 and 24 h; blood samples of oral group were collected at time points of predose, 0.25, 0.5, 1, 2, 4, 8, 12, and 24 h. Standard curve was plotted based on concentrations of the samples in a suitable range, the concentrations of test compounds in plasma samples were determined by using LC-MS/MS. Pharmacokinetic parameters were calculated according to drug concentration-time curve using a noncompartmental method by WinNonLin (Phoenix™, version 6.1) or other similar software.
ERα % degradation (ERα),IC50 (MCF7) [nM],"AUC(0-inf) ([1]; IV, 3.0 mg/kg) [µM·h]","clearance ([1]; IV, 3.0 mg/kg) [mL/min/kg]","half-life ([1]; IV, 3.0 mg/kg) [h]","Vd ([1]; IV, 3.0 mg/kg) [L/kg]",bioavailability [1] [%],"AUC(0-inf) ([1]; PO, 10.0 mg/kg) [µM·h]","Cmax ([1]; PO, 10.0 mg/kg) [µM]","Tmax ([1]; PO, 10.0 mg/kg) [h]","half-life ([1]; PO, 10.0 mg/kg) [h]",melting point [°C],SMILES
A (A = ERα % degradation ≥80%),≤ 25,72,1.6,7.8,0.8,74,179,16.1,4,6.4,–,"C[C@@H]1Cc2c([nH]c3ccccc23)[C@@H](c2c(F)cc(/C=C/C(=O)O)cc2F)N1CC(C)(C)F [AZD9496, (E)-3-(3,5-Difluoro-4-((1R,3R)2-(2-fluoro-2-methylpropyl)-3-methyl-2,3,4,9-tetrahydro-1H-pyrido[3,4b]indol-1-yl)phenyl)acrylic acid, reference compound]"
A (A = ERα % degradation ≥80%),≤ 25,67,1.7,7.7,1,82,185,10.8,2,8.5,–,"C[C@@H]1Cc2c([nH]c3ccccc23)[C@@H](c2c(F)cc(/C=C/C(=O)O)cc2F)N1CC12CC(C1)C2 [Example 5A, (E)-3-(4-((1R,3R)-2-(Bicyclo[1.1.1]pentan-1-ylmethyl)-3-methyl-2,3,4,9-tetrahydro-1H-pyrido[3,4-b]indol-1-yl)-3,5-difluorophenyl)acrylic acid]"
A (A = ERα % degradation ≥80%),25 to 250,22,5.2,3.2,0.6,109,80,24.5,0.5,2.1,–,"C[C@@H]1Cc2c([nH]c3ccccc23)[C@@H](c2c(F)cc(/C=C/C(=O)O)cc2F)N1[C@H]1CCOC1 [Example 8A, (E)-3-(3,5-Difluoro-4-((1R,3R)-3-methyl-2-((S)-tetrahydrofuran-3-yl)-2,3,4,9-tetrahydro-1H-pyrido[3,4-b]indol-1-yl)phenyl)acrylic acid]"
A (A = ERα % degradation ≥80%),≤ 25,96,1.2,4.2,0.48,88,283,33,–,3.5,–,"C[C@@H]1Cc2c([nH]c3ccccc23)[C@@H](c2c(F)cc(/C=C/C(=O)O)cc2F)N1C12CC(C1)C2 [Example 11A, (E)-3-(4-((1R,3R)-2-(Bicyclo[1.1.1]pentan-1-yl)-3-methyl-2,3,4,9-tetrahydro-1H-pyrido[3,4-b]indol-1-yl)-3,5-difluorophenyl)acrylic acid]"
B (B = ERα % degradation <80%),25 to 250,–,–,–,–,–,–,–,–,–,–,"C[C@@H]1Cc2c([nH]c3ccccc23)[C@@H](c2c(F)cc(/C=C/C(=O)O)cc2F)N1CC12CC(F)(C1)C2 [Example 14A, (E)-3-(3,5-Difluoro-4-((1R,3R)-2-((3-fluorobicyclo[1.1.1]pentan-1-yl)methyl)-3-methyl-2,3,4,9-tetrahydro-H-pyrido[3,4-b]indol-1-yl)phenyl)acrylic acid]"
–,≤ 25,–,–,–,–,–,–,–,–,–,128 to 130,"C[C@@H]1Cc2c([nH]c3ccc(F)cc23)[C@@H](c2c(F)cc(/C=C/C(=O)O)cc2F)N1CC(C)(C)F [Example 21A, (E)-3-(3,5-Difluoro-4-((1R,3R)-6-fluoro-2-(2-fluoro-2-methylpropyl)-3-methyl-2,3,4,9-tetrahydro-1H-pyrido[3,4-b]indol-1-yl)phenyl)acrylic acid]"
A (A = ERα % degradation ≥80%),≤ 25,–,–,–,–,–,–,–,–,–,–,"C[C@]12CC[C@@H]3c4ccc(O)cc4C[C@@H](CCCCCCCCC[S+]([O-])CCCC(F)(F)C(F)(F)F)[C@H]3[C@@H]1CC[C@@H]2O (stereo partly shown) [fulvestrant, reference compound]"
